According to the supplement of paper PMC6965134:
± gives the standard deviation of the averaged measurements. Values belong to the compound of their own block, whether it stands above or below them.

Assay: TIMS collisional cross section (CCS, N2) of the lipid ion; higher = larger ion cross section
Details: ionization mode: negative, one isomer drawn
Procedure: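 Lipid extracts of human plasma (NIST SRM 1950), mouse liver or HeLa cells were separated by nanoflow C18 LC (30 min gradient) and analysed by TIMS-PASEF on a timsTOF Pro. Ion mobility was calibrated with the Agilent tuning mix (negative mode ions) and converted to collisional cross sections (Mason–Schamp, N2).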

[1] = sample type: Human plasma, ion (formula + adduct): [C42H78NO8P+HCOO] 1-
[2] = sample type: Mouse Liver, ion (formula + adduct): [C42H78NO8P+HCOO] 1-
[3] = sample type: Mouse Liver, ion (formula + adduct): [C46H82NO8P+HCOO] 1-
[4] = sample type: Mouse Liver, ion (formula + adduct): [C45H82NO8P+HCOO] 1-
[5] = sample type: Mouse Liver, ion (formula + adduct): [C47H82NO8P+HCOO] 1-
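Further: lipids from MTBE extraction, five replicate injections per sample, 100 ms TIMS ramp spanning 0.6–1.95 Vs/cm², lipid identity assigned from PASEF MS/MS spectra.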

SMILES: CCCCCC/C=C\CCCCCCCC(=O)O[C@H](COC(=O)CCCCCCCCCCCCCCC)COP(=O)([O-])OCC[N+](C)(C)C [PC 16:0_16:1]
TIMS collisional cross section (sample type: Human plasma, ion (formula + adduct): [C40H78NO8P+HCOO] 1-): 286.6 Å²

SMILES: CCCCCCCCCCCCCCCCC(=O)O[C@H](COC(=O)CCCCCCCCCCCCCCC)COP(=O)([O-])OCC[N+](C)(C)C [PC 16:0_17:0]
TIMS collisional cross section (sample type: Human plasma, ion (formula + adduct): [C41H82NO8P+HCOO] 1-): 290.3 Å²

SMILES: CCCCCCC/C=C\CCCCCCCC(=O)O[C@H](COC(=O)CCCCCCCCCCCCCCC)COP(=O)([O-])OCC[N+](C)(C)C [PC 16:0_17:1]
TIMS collisional cross section (sample type: Mouse Liver, ion (formula + adduct): [C41H80NO8P+HCOO] 1-): 288.8 Å²

SMILES: CCCCCCCCCCCCCCCCCC(=O)O[C@H](COC(=O)CCCCCCCCCCCCCCC)COP(=O)([O-])OCC[N+](C)(C)C [PC 16:0_18:0]
TIMS collisional cross section (sample type: Human plasma, ion (formula + adduct): [C42H84NO8P+HCOO] 1-): 293.4 Å²
TIMS collisional cross section (sample type: Mouse Liver, ion (formula + adduct): [C42H84NO8P+AcO] 1-): 299.1 Å²
TIMS collisional cross section (sample type: Mouse Liver, ion (formula + adduct): [C42H84NO8P+HCOO] 1-): 293.4 Å²

SMILES: CCCCC/C=C\C/C=C\C/C=C\CCCCC(=O)O[C@H](COC(=O)CCCCCCCCCCCCCCC)COP(=O)([O-])OCC[N+](C)(C)C [PC 16:0_18:3@]
TIMS collisional cross section [1]: 288.8 Å²

SMILES: CCCCC/C=C\C/C=C\CCCCCCCC(=O)O[C@H](COC(=O)CCCCCCC/C=C\CCCCCC)COP(=O)([O-])OCC[N+](C)(C)C [PC 16:1@_18:2]
TIMS collisional cross section (sample type: Mouse Liver, ion (formula + adduct): [C42H78NO8P-H] 1-): 273.3 Å²

SMILES: CCCCCC/C=C\CCCCCCCC(=O)OC[C@H](COP(=O)([O-])OCC[N+](C)(C)C)OC(=O)CCCCCCCCCCCCC/C=C\CCCCCCCC [PC 16:1@_24:1]
TIMS collisional cross section (sample type: Mouse Liver, ion (formula + adduct): [C48H92NO8P-CH3] 1-): 290.9 Å²

SMILES: CCCCC/C=C\C/C=C\CCCCCCCC(=O)O[C@H](COC(=O)CCCCCCC/C=C\CCCCCC)COP(=O)([O-])OCC[N+](C)(C)C [PC 16:1_18:2]
TIMS collisional cross section [2]: 288.8 Å²
TIMS collisional cross section (sample type: Mouse Liver, ion (formula + adduct): [C42H78NO8P-CH3] 1-): 270.5 Å²

SMILES: CCCCC/C=C\C/C=C\C/C=C\CCCCCCC(=O)O[C@H](COC(=O)CCCCCCC/C=C\CCCCCC)COP(=O)([O-])OCC[N+](C)(C)C [PC 16:1_20:3]
TIMS collisional cross section (sample type: Mouse Liver, ion (formula + adduct): [C44H80NO8P-CH3] 1-): 276.2 Å²

SMILES: CCCCCCCCCCCCCCCCC(=O)OC[C@H](COP(=O)([O-])OCC[N+](C)(C)C)OC(C)=O [PC 17:0@_2:0]
TIMS collisional cross section (sample type: Human plasma, ion (formula + adduct): [C27H54NO8P-H] 1-): 239 ± 3 Å²

SMILES: CCCCCCCC/C=C\CCCCCCCC(=O)O[C@H](COC(=O)CCCCCCCCCCCCCCCC)COP(=O)([O-])OCC[N+](C)(C)C [PC 17:0@_18:1]
TIMS collisional cross section (sample type: Mouse Liver, ion (formula + adduct): [C43H84NO8P+HCOO] 1-): 294.5 Å²

SMILES: CCCCCCCC/C=C\CCCCCCCC(=O)O[C@H](COC(=O)CCCCCCCCCCCCCCCC)COP(=O)([O-])OCC[N+](C)(C)C [PC 17:0_18:1]
TIMS collisional cross section (sample type: Human plasma, ion (formula + adduct): [C43H84NO8P+HCOO] 1-): 294.5 Å²

SMILES: CCCCC/C=C\C/C=C\CCCCCCCC(=O)O[C@H](COC(=O)CCCCCCCCCCCCCCCC)COP(=O)([O-])OCC[N+](C)(C)C [PC 17:0_18:2]
TIMS collisional cross section (sample type: Mouse Liver, ion (formula + adduct): [C43H82NO8P+HCOO] 1-): 293.3 Å²

SMILES: C=CC(=O)O[C@H](COC(=O)CCCCCCCCCCCCCCCCC)COP(=O)([O-])OCC[N+](C)(C)C [PC 18:0@_3:1]
TIMS collisional cross section (sample type: Mouse Liver, ion (formula + adduct): [C29H56NO8P+OAcO] 1-): 258.4 Å²

SMILES: CCCCC/C=C\C/C=C\C/C=C\C/C=C\CCCC(=O)O[C@H](COC(=O)CCCCCCCCCCCCCCCCC)COP(=O)([O-])OCC[N+](C)(C)C [PC 18:0@_20:4]
TIMS collisional cross section (sample type: Human plasma, ion (formula + adduct): [C46H84NO8P+HCOO] 1-): 297.2 Å²

SMILES: C=CC(=O)O[C@H](COC(=O)CCCCCCCCCCCCCCCCC)COP(=O)([O-])OCC[N+](C)(C)C [PC 18:0_3:1@]
TIMS collisional cross section (sample type: Mouse Liver, ion (formula + adduct): [C29H56NO8P+AcO] 1-): 260.8 Å²
TIMS collisional cross section (sample type: Mouse Liver, ion (formula + adduct): [C29H56NO8P+HCOO] 1-): 243.4 Å²

SMILES: C=CC(=O)O[C@H](COC(=O)CCCCCCCCCCCCCCCCC)COP(=O)([O-])OCC[N+](C)(C)C [PC 18:0_3:1]
TIMS collisional cross section (sample type: Human plasma, ion (formula + adduct): [C29H56NO8P+AcO] 1-): 252.1 Å²

SMILES: CCCCCCCCCCCCCCCCCC(=O)OC[C@H](COP(=O)([O-])OCC[N+](C)(C)C)OC(=O)CCCCCCCCCCCCCCCCC [PC 18:0_18:0]
TIMS collisional cross section (sample type: Mouse Liver, ion (formula + adduct): [C44H88NO8P+HCOO] 1-): 298.4 Å²

Second part, the compound after the results:

TIMS collisional cross section [1]: 289.9 Å²
TIMS collisional cross section [2]: 289.15 ± 0.21 Å²
SMILES: CCCCC/C=C\C/C=C\C/C=C\CCCCC(=O)O[C@H](COC(=O)CCCCCCCCCCCCCCC)COP(=O)([O-])OCC[N+](C)(C)C [PC 16:0_18:3]

TIMS collisional cross section (sample type: Human plasma, ion (formula + adduct): [C44H78NO8P+HCOO] 1-): 292.7 Å²
TIMS collisional cross section (sample type: Mouse Liver, ion (formula + adduct): [C44H78NO8P-CH3] 1-): 275.6 Å²
SMILES: CC/C=C\C/C=C\C/C=C\C/C=C\C/C=C\CCCC(=O)O[C@H](COC(=O)CCCCCCCCCCCCCCC)COP(=O)([O-])OCC[N+](C)(C)C [PC 16:0_20:5]

TIMS collisional cross section [3]: 298.9 Å²
SMILES: CCCCC/C=C\C/C=C\C/C=C\C/C=C\C/C=C\CCC(=O)O[C@H](COC(=O)CCCCCCCCCCCCCCC)COP(=O)([O-])OCC[N+](C)(C)C [PC 16:0_22:5]

TIMS collisional cross section (sample type: Human plasma, ion (formula + adduct): [C46H80NO8P+HCOO] 1-): 297.8 Å²
TIMS collisional cross section (sample type: Mouse Liver, ion (formula + adduct): [C46H80NO8P+HCOO] 1-): 297.75 ± 0.78 Å²
SMILES: CC/C=C\C/C=C\C/C=C\C/C=C\C/C=C\C/C=C\CCC(=O)O[C@H](COC(=O)CCCCCCCCCCCCCCC)COP(=O)([O-])OCC[N+](C)(C)C [PC 16:0_22:6]

TIMS collisional cross section [3]: 297.7 Å²
SMILES: CCCCC/C=C\C/C=C\C/C=C\C/C=C\CCCCCC(=O)O[C@H](COC(=O)CCCCCCC/C=C\CCCCCC)COP(=O)([O-])OCC[N+](C)(C)C [PC 16:1@_22:4]

TIMS collisional cross section (sample type: Mouse Liver, ion (formula + adduct): [C46H80NO8P-CH3] 1-): 280.1 Å²
SMILES: CCCCC/C=C\C/C=C\C/C=C\C/C=C\C/C=C\CCC(=O)O[C@H](COC(=O)CCCCCCC/C=C\CCCCCC)COP(=O)([O-])OCC[N+](C)(C)C [PC 16:1@_22:5]

TIMS collisional cross section (sample type: Human plasma, ion (formula + adduct): [C44H76NO8P+HCOO] 1-): 290.4 Å²
TIMS collisional cross section (sample type: Mouse Liver, ion (formula + adduct): [C44H76NO8P+HCOO] 1-): 290.4 Å²
SMILES: CC/C=C\C/C=C\C/C=C\C/C=C\C/C=C\CCCC(=O)O[C@H](COC(=O)CCCCCCC/C=C\CCCCCC)COP(=O)([O-])OCC[N+](C)(C)C [PC 16:1_20:5]

TIMS collisional cross section (sample type: Human plasma, ion (formula + adduct): [C46H78NO8P+HCOO] 1-): 295.4 Å²
SMILES: CC/C=C\C/C=C\C/C=C\C/C=C\C/C=C\C/C=C\CCC(=O)O[C@H](COC(=O)CCCCCCC/C=C\CCCCCC)COP(=O)([O-])OCC[N+](C)(C)C [PC 16:1_22:6]

TIMS collisional cross section [4]: 296.7 Å²
SMILES: CCCCC/C=C\C/C=C\C/C=C\C/C=C\CCCC(=O)O[C@H](COC(=O)CCCCCCCCCCCCCCCC)COP(=O)([O-])OCC[N+](C)(C)C [PC 17:0@_20:4]

TIMS collisional cross section (sample type: Human plasma, ion (formula + adduct): [C47H82NO8P+HCOO] 1-): 301.2 Å²
TIMS collisional cross section [5]: 301.2 Å²
SMILES: CC/C=C\C/C=C\C/C=C\C/C=C\C/C=C\C/C=C\CCC(=O)O[C@H](COC(=O)CCCCCCCCCCCCCCCC)COP(=O)([O-])OCC[N+](C)(C)C [PC 17:0@_22:6]

TIMS collisional cross section [4]: 297.2 Å²
SMILES: CCCCC/C=C\C/C=C\C/C=C\C/C=C\CCCC(=O)O[C@H](COC(=O)CCCCCCCCCCCCCCCC)COP(=O)([O-])OCC[N+](C)(C)C [PC 17:0_20:4]

TIMS collisional cross section [5]: 300.6 Å²
SMILES: CC/C=C\C/C=C\C/C=C\C/C=C\C/C=C\C/C=C\CCC(=O)O[C@H](COC(=O)CCCCCCCCCCCCCCCC)COP(=O)([O-])OCC[N+](C)(C)C [PC 17:0_22:6]

TIMS collisional cross section (sample type: Human plasma, ion (formula + adduct): [C46H82NO8P+HCOO] 1-): 301.2 Å²
SMILES: CC/C=C\C/C=C\C/C=C\C/C=C\C/C=C\CCCC(=O)O[C@H](COC(=O)CCCCCCCCCCCCCCCCC)COP(=O)([O-])OCC[N+](C)(C)C [PC 18:0@_20:5]

TIMS collisional cross section (sample type: Human plasma, ion (formula + adduct): [C48H84NO8P+HCOO] 1-): 303.4 Å²
SMILES: CC/C=C\C/C=C\C/C=C\C/C=C\C/C=C\C/C=C\CCC(=O)O[C@H](COC(=O)CCCCCCCCCCCCCCCCC)COP(=O)([O-])OCC[N+](C)(C)C [PC 18:0@_22:6]
